Laboratory results published in PMC7468568 (Nature chemical biology, 2020).
Values after ≈ are worked out from the molar mass of the structure shown.

Key:
[1] = system: c-Fos protein expression in the paraventricular nucleus (PVN); test: HPA axis activation: c-Fos labeling in the PVN; format: in vivo, mouse; conditions: for c-Fos protein expression in PVN: C57BL/6J mice
[2] = system: DAGLα/β, MAGL and ABHD6; test: In vitro ABPP of brain of LEI-401-treated mice; format: in vivo, mouse; conditions: male C57BL/6J mice; 30 mg kg^−1 i.p.; 2 h; ABPP of brain membrane lysate
[3] = target: T1, FAAH (Mus musculus, UniProt O08914); test: Gel-based ABPP, mouse brain membrane proteome; format: biochemical; conditions: at 10 μM
T1 sequence (O08914 1-579): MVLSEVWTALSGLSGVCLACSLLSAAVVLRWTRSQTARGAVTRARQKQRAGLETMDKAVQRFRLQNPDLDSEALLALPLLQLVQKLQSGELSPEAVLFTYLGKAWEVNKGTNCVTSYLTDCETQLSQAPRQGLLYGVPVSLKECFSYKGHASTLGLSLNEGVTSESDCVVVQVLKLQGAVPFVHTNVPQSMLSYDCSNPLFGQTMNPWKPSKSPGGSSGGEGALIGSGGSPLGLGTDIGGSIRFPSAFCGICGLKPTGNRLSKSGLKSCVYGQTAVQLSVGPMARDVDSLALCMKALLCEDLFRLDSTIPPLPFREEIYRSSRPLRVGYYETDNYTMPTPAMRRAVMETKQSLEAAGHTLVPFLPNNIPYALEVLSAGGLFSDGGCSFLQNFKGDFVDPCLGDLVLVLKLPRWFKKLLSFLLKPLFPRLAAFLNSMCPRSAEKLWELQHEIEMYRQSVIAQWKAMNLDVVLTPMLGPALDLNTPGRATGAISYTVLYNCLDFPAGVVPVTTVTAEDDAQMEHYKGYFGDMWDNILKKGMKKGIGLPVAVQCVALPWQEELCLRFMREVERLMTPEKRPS

[4] = target: T2, mDAGLβ (Mus musculus, UniProt Q91WC9); test: Surrogate substrate-based fluorescence assay DAGLβ; format: biochemical
T2 sequence (Q91WC9 1-669): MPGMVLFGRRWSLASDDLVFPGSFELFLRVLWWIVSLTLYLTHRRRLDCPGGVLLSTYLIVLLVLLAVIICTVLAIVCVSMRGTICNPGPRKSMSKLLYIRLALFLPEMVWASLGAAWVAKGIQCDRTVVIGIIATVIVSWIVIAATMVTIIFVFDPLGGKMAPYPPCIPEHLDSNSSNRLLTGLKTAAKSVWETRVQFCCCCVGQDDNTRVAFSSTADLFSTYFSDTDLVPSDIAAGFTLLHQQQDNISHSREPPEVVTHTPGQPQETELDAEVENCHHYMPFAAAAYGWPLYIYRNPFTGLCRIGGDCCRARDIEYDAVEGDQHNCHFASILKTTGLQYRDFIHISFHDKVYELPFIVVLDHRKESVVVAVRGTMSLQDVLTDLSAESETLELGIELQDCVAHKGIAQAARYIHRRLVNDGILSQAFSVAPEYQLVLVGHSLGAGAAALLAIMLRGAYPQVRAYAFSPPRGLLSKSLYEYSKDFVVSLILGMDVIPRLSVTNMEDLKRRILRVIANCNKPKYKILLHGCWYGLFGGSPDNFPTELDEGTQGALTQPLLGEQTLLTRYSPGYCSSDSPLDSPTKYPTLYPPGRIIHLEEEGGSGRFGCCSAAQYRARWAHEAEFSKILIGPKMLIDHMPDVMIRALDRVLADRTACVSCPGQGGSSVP

[5] = Microsomal clearance, mouse; format: in vitro ADME; conditions: 1 μM
[6] = system: brain NAE levels; test: Lipid measurements in mouse brain; format: in vivo
[7] = target: protein targets of photoprobe 10 in hNAPE-PLD-FLAG-transfected HEK293T cells (Homo sapiens, UniProt Q6IQ20); test: Chemical proteomics-based photoaffinity labeling; format: cell-based; conditions: photoprobe 10 2 μM versus LEI-401 20 μM
Chain of protein targets of photoprobe 10 in hNAPE-PLD-FLAG-transfected HEK293T cells (Q6IQ20 whole entry): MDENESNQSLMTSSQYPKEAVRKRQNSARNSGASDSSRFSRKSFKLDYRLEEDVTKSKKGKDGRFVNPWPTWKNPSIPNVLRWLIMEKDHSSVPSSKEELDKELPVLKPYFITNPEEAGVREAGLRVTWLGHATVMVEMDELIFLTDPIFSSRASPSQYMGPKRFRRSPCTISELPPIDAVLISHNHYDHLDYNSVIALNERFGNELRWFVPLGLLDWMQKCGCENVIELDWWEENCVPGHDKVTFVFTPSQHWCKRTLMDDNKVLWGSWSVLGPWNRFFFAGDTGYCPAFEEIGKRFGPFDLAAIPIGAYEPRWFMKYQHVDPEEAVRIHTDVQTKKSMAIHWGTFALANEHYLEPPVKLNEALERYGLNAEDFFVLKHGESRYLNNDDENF

[8] = system: Neuro-2a cells; test: Live cell count with trypan blue; format: cell-based, mouse; conditions: 10 μM, 2 h
[9] = target: mouse PGP-transporter (Mus musculus, UniProt P21447); test: P-glycoprotein active efflux assay, mouse; format: in vitro ADME
Chain of mouse PGP-transporter (P21447 whole entry): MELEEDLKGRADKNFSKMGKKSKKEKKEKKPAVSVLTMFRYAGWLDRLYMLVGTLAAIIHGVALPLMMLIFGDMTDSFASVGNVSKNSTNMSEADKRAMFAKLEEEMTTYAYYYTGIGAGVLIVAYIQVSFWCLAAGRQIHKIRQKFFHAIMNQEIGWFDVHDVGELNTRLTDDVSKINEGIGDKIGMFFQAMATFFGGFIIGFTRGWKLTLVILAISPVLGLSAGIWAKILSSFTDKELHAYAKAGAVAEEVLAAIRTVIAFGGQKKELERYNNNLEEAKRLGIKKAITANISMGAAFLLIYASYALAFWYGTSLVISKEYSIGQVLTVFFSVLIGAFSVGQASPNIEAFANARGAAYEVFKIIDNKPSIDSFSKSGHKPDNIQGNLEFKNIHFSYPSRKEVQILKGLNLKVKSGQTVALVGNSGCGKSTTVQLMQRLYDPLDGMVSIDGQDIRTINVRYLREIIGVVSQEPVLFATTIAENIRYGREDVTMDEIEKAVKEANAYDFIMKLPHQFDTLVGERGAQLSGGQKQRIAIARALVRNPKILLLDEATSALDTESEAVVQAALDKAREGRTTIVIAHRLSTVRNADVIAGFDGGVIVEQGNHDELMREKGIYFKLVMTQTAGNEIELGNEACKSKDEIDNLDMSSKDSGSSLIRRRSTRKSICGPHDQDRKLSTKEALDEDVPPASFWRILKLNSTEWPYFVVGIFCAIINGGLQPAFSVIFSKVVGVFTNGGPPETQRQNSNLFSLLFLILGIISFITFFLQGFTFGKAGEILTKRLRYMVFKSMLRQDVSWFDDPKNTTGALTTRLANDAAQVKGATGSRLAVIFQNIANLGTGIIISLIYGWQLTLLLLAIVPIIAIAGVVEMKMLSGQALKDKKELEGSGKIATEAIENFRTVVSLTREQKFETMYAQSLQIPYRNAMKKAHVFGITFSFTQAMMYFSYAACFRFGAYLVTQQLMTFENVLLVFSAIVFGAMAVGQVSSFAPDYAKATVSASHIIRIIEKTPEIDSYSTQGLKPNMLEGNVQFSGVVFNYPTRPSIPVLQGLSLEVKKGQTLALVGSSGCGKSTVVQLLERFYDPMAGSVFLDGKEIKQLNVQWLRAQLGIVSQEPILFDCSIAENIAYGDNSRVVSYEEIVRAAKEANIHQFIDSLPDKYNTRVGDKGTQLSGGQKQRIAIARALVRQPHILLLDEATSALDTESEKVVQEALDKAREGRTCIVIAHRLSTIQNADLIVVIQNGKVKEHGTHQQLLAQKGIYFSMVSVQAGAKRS

[10] = target: T3, ABHD6 (Mus musculus, UniProt Q8R2Y0); test: Gel-based ABPP, mouse brain membrane proteome; format: biochemical
T3 sequence (Q8R2Y0 1-336): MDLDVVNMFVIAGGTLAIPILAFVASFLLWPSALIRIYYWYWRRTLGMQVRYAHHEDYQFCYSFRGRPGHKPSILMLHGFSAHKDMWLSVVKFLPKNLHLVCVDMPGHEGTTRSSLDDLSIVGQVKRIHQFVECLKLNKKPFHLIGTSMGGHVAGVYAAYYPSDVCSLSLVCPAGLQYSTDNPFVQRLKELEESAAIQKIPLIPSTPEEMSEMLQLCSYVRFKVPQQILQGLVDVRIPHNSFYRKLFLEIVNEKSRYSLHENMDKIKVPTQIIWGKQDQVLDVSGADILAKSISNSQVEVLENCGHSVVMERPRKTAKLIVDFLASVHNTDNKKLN

[11] = Hepatocyte clearance, mouse; format: in vitro ADME; conditions: 1 μM
[12] = Plasma protein binding, mouse; format: in vitro ADME; conditions: equilibrium dialysis
[13] = target: cannabinoid CB1 receptor (Homo sapiens, UniProt P21554); test: [3H]CP55940 radioligand displacement assay CB1; format: binding; conditions: at 10 μM
Chain of cannabinoid CB1 receptor (P21554 whole entry): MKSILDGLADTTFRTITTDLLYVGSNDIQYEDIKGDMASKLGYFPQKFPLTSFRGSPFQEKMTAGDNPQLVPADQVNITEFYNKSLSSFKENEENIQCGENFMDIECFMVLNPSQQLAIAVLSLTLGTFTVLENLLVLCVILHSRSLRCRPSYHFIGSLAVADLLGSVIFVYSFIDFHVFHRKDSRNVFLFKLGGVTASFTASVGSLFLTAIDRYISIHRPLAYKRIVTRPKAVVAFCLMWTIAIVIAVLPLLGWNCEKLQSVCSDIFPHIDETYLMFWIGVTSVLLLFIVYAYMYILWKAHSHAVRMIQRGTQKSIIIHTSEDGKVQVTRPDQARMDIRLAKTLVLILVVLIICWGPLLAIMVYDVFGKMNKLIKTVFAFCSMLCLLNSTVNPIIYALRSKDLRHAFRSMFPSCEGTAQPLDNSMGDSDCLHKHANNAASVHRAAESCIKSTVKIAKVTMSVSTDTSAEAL

[14] = Microsomal clearance, human; format: in vitro ADME; conditions: 1 μM
[15] = Kinetic aqueous solubility; format: physicochemical; conditions: phosphate buffer pH 6.5
[16] = Plasma protein binding, human; format: in vitro ADME; conditions: equilibrium dialysis
[17] = system: Neuro-2a cells; test: Targeted lipidomics in Neuro-2a cells; format: cell-based, mouse; conditions: 10 μM, 2 h
[18] = target: T4, NAPE-PLD (Mus musculus, UniProt Q8BH82); test: LC-MS-based endogenous NAPE-PLD activity assay; format: biochemical
T4 sequence (Q8BH82 1-396): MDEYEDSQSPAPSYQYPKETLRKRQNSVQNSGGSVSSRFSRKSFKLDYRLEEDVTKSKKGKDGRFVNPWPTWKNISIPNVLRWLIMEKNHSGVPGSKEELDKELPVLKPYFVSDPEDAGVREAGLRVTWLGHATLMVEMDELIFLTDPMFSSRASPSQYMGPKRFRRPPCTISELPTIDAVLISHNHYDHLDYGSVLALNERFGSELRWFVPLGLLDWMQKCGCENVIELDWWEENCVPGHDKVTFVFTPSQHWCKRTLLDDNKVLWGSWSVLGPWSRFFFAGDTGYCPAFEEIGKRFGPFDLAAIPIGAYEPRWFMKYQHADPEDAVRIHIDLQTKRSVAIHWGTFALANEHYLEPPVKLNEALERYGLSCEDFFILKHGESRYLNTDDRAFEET

[19] = target: T5, human MAGL (Homo sapiens, UniProt Q99685); test: Natural substrate-based fluorescence assay MAGL; format: biochemical
T5 sequence (Q99685 1-303): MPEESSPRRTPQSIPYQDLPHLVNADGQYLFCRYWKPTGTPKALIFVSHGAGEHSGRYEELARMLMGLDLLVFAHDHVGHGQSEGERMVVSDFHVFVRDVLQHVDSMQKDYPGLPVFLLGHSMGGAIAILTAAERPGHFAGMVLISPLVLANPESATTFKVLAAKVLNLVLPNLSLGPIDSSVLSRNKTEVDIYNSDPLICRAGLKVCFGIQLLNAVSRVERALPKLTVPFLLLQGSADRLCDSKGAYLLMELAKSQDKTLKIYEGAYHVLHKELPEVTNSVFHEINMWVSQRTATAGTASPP

[20] = target: human PGP-transporter (Homo sapiens, UniProt P08183); test: P-glycoprotein active efflux assay, human; format: in vitro ADME
Chain of human PGP-transporter (P08183 whole entry): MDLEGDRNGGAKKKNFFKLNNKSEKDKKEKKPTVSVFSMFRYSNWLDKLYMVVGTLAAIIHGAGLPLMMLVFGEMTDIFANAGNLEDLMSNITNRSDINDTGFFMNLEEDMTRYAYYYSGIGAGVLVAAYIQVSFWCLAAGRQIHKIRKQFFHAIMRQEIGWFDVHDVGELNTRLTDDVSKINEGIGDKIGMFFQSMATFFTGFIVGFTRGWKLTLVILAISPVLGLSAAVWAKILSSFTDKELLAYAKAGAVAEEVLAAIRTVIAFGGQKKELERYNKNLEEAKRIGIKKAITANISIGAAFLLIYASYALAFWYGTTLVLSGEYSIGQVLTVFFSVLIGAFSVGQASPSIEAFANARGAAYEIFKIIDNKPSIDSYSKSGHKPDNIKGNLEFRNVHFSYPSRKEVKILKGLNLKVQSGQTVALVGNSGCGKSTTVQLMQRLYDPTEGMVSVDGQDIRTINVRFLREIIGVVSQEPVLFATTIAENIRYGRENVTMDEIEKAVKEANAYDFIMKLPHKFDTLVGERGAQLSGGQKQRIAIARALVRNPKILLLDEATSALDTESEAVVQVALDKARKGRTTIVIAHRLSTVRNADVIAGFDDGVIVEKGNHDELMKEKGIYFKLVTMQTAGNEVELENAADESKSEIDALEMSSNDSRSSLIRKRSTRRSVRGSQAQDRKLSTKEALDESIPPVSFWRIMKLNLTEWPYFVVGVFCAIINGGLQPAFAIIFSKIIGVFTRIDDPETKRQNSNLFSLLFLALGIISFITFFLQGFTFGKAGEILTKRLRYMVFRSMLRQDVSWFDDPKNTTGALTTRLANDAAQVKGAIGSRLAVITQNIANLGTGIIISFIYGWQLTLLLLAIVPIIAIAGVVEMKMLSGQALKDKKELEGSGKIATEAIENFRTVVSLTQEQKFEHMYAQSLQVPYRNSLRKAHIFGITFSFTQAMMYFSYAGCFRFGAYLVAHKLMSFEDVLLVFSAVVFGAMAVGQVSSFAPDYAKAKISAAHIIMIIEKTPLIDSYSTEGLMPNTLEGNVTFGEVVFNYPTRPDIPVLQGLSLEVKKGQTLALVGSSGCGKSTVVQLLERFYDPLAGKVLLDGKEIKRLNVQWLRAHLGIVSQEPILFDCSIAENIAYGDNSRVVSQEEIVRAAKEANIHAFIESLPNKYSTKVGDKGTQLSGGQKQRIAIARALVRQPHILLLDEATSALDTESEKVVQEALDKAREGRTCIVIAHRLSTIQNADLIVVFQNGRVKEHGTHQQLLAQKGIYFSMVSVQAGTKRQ

[21] = Hepatocyte clearance, human; format: in vitro ADME; conditions: 1 μM
[22] = system: DAGLα; test: Natural substrate-based fluorescence assay DAGLα; format: biochemical, human and mouse
[23] = target: cannabinoid CB2 receptor (Homo sapiens, UniProt P34972); test: [3H]CP55940 radioligand displacement assay CB2; format: binding; conditions: at 10 μM
Chain of cannabinoid CB2 receptor (P34972 whole entry): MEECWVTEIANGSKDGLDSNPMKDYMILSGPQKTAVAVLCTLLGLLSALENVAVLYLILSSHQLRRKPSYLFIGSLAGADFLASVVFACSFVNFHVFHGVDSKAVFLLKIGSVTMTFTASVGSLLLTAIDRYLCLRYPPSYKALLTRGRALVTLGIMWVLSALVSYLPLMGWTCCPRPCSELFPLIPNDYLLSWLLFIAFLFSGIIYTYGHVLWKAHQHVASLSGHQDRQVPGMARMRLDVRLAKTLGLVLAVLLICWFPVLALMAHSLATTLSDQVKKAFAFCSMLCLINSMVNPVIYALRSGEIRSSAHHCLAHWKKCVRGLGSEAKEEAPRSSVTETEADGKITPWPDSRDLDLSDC

[24] = target: T6, PLA2G4E (Homo sapiens, UniProt Q3MJ16); test: Gel-based ABPP, hPLA2G4E overexpressing membrane lysate; format: biochemical; conditions: at 10 μM
T6 sequence (Q3MJ16 1-868): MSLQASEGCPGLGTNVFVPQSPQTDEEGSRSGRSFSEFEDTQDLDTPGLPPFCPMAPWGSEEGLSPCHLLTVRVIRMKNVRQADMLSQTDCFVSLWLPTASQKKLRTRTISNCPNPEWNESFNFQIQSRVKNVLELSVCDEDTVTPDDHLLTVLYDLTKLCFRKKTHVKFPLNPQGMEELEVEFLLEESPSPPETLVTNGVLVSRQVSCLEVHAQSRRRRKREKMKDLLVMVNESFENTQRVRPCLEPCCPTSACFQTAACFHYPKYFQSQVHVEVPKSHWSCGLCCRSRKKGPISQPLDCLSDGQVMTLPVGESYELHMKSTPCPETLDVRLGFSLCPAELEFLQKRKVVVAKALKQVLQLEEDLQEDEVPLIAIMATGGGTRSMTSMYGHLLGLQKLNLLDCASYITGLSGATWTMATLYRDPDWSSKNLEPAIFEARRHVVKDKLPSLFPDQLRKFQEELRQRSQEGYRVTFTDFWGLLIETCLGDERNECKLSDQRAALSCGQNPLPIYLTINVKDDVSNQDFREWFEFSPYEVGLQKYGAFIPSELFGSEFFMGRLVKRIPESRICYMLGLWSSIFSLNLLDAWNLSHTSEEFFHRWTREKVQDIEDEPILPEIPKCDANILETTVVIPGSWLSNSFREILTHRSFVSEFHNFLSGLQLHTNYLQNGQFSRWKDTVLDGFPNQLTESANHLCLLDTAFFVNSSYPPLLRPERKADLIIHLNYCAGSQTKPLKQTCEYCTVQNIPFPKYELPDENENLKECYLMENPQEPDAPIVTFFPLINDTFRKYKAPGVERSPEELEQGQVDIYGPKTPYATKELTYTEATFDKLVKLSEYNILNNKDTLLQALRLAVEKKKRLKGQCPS

[25] = logD-assay; format: physicochemical; conditions: octanol/water
[26] = system: circulating corticosterone (CORT); test: HPA axis activation: circulating CORT measurements; conditions: cotreatment 1 mg kg^−1 i.p. with LEI-401 30 mg kg^−1 i.p.; P = 0.0027
[27] = WT littermates of NAPE-PLD KO animals, mixed 129SvJ-C57BL/6 background

Cc1c(C(=O)NN2CCCCC2)nn(-c2ccc(Cl)cc2Cl)c1-c1ccc(I)cc1 [AM251]
c-Fos protein expression in PVN ([1]; 3 mg kg^−1 i.p. single dose, 105 min before perfusion, P = 0.011): elevated c-Fos protein expression

O=C(NCC1CC1)c1cc(N2CC[C@H](O)C2)nc(N2CCC[C@@H](c3ccccc3)C2)n1 [LEI-401]
activity of DAGLα/β, MAGL and ABHD6 in the brain [2]: not affected
inhibitory activity, FAAH [3]: No inhibitory activities
inhibition of DAGLβ [4]: did not inhibit
clearance in mouse microsomes [5]: 42 μl min^−1 mg^−1 protein
brain 2-AG levels ([6]; C57BL/6J mice, 30 mg kg^−1 i.p.): not significantly affected
brain anandamide level, dose response ([6]; C57BL/6J mice, 30 mg kg^−1 i.p., 2 h): significantly reduced anandamide
brain NAE levels in NAPE-PLD KO mice ([6]; NAPE-PLD KO mice, mixed 129SvJ-C57BL/6 background): did not reduce
brain AA levels at high dose ([6]; WT and NAPE-PLD KO mice (both genotypes), 60 mg kg^−1): decreased
brain NAPE and pNAPE species ([6]; WT and NAPE-PLD KO mice, compared to vehicle): No change
brain PEA and OEA levels in WT littermates [6, 27]: significantly reduced
brain anandamide levels in WT littermates [6, 27]: not decreased
brain anandamide level, time course ([6]; male C57BL/6J mice, 30 mg kg^−1 i.p. single dose, 1, 2, 4, 8 h, significant at 2 h, vehicle level by 4 h): significant and time-dependent reduction
competition of NAPE-PLD labeling by probe 10 [7]: labeling could be prevented
cell viability [8]: did not show any sign of reduced cell viability
efflux ratio, mouse PGP-transporter [9]: 1.8
inhibition of ABHD6 [10]: did not inhibit
clearance in mouse hepatocytes [11]: 28.8 μl min^−1 per 10^6 cells
mouse protein binding [12]: > 99.8%
inhibitory activity, cannabinoid receptor type 1 [13]: No inhibitory activities
clearance in human microsomes [14]: 10 μl min^−1 mg^−1 protein
aqueous solubility [15]: 1.7 µg/mL (≈ 4.03 µM)
c-Fos protein expression in PVN ([1]; 30 mg kg^−1 i.p. single dose, 210 min before perfusion, P< 0.0001): elevated c-Fos protein expression
human protein binding [16]: > 99.8%
anandamide level ([17]; Neuro-2a NAPE-PLD KO cells): not in NAPE-PLD KO cells
anandamide level ([17]; Neuro-2a WT cells): twofold reduction
other saturated, mono- and (ω−6)-polyunsaturated NAE levels ([17]; Neuro-2a WT cells): twofold decrease
(ω−3)-polyunsaturated EPEA and DHEA levels ([17]; Neuro-2a cells): did not respond
C17:0-NAE formation from C17:0-NAPE ([18]; brain homogenates of NAPE-PLD KO mice): not from KO mice
C17:0-NAE formation from C17:0-NAPE ([18]; brain homogenates of WT mice): reduced C17:0-NAE formation
inhibition of MAGL [19]: did not inhibit
efflux ratio, human PGP-transporter [20]: 1.7
clearance in human hepatocytes [21]: 6.9 μl min^−1 per 10^6 cells
inhibition of DAGLα [22]: did not inhibit
inhibitory activity, cannabinoid receptor type 2 [23]: No inhibitory activities
inhibitory activity, PLA2G4E [24]: No inhibitory activities
logD [25]: 3.3

NC(=O)c1cccc(-c2cccc(OC(=O)NC3CCCCC3)c2)c1 [URB597]
effect on LEI-401-induced c-Fos protein expression in PVN ([1]; cotreatment 1 mg kg^−1 i.p. with LEI-401 30 mg kg^−1 i.p., P=0.016): reversed by cotreatment
plasma CORT levels in LEI-401-treated mice on cotreatment [26]: not when cotreated with a FAAH inhibitor
